Here are results for 13 compounds from patent publication US11286233B2, “Stilbene derivatives for the treatment of CNS and other disorders” (AMBIENT PHOTONICS, INC., priority 2017, dated 2022).

pEC50: −log10 of the molar value.

Assay [1] has as its target T1, Aβ1-42:Zn (Homo sapiens, UniProt P05067).
T1 construct: Human peptides Aβ1-42 and Amylin 8-37 were purchased; purchased China Peptide
Nature of the assay: Fluorescence-based (bis-ANS) assay of Aβ1-42:Zn disaggregation. It counts as biochemical. The note with it: Aβ1-42 15 μM, bis-ANS 15 μM, Zn 15 μM; Tris-HCl pH7.4, 26° C.; test compounds 0.227-60 μM added after plateau, read over 20 minutes; concentration reducing fluorescence by 50 percent. As for the experimental part:
Human peptides Aβ1-42 and Amylin 8-37 were purchased from China Peptide and stored at −80° C. […] The device was configured to maintain 26° C., measure an excitation of 390 nm, emission of 490 nm and cutoff 475 nm with the PMT+set at Medium, 6 flashes/read at 40 second intervals with shaking 5 seconds before the first read and 3 seconds between reads. Experiments were conducted at 26° C. in a Tris-HCl buffer (50 mM, pH7.4) containing NaCl (150 mM). Aβ1-42 was solubilized in DMSO to a concentration of 1.5 mM for 5 minutes then briefly centrifuged to remove any aggregates. The soluble Aβ1-42 (15 μM) was immediately mixed ±bis-ANS (15 μM) and allowed to equilibrate for 5 minutes. Aβ aggregation was induced with the addition of ±Zn (15 μM) in H2O. […] Test compounds (0.227-60 μM in DMSO) were then added and the dose response was measured over a 20-minute period. EDTA, known to chelate Zn, was used as a positive control. Raw fluorescence was normalized to background fluorescence without Aβ and expressed as a percentage of that in control samples without Zn. All quantitative data was expressed as mean±SEM from at least 3 replicates. All statistical analysis was conducted with Prism 6 (GraphPad).

For assay [2], the target named is T2, Amylin 8-37 (Homo sapiens, UniProt P10997).
T2 construct: Amylin 8-37 peptide was solubilized in DMSO; purchased China Peptide
T2 sequence (P10997 41-70): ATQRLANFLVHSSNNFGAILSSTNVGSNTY
The assay is described as follows: Fluorescence-based (bis-ANS) assay of Amylin disaggregation. It counts as biochemical. The conditions noted are these: Amylin 8-37 15 μM, bis-ANS 15 μM; Tris-HCl pH7.4, 26° C.; aggregation 24 hours, test compounds 0.227-60 μM, read over 24 hour period; concentration reducing fluorescence by 50 percent. As for the experimental part:
Human peptides Aβ1-42 and Amylin 8-37 were purchased from China Peptide and stored at −80° C. Zinc sulfate heptahydrate (ZnSO4.7H2O), BisANS (4,4′-Dianilino-1,1′-binaphthyl-5,5′-disulfonic acid dipotassium salt), Epigallocatechin-3-gallate (EGCG), 9-(Dicyanovinyl)julolidine (DCVJ) and Clioquinol (CQ) were purchased from Sigma Aldrich. Ethylenediaminetetraacetic acid (EDTA) was purchased from Alfa Aesar. 2-(dimethylamino)methyl-5,7-dichloro-8-hydroxyquinoline (AC-068), structurally similar to PBT-2 was synthesized by Warner Babcock Institute for Green Chemistry, LLC.
Amylin disaggregation was assessed using a Spectramax M5 multi-mode microplate reader (Molecular Devices) using untreated black with clear bottom 96 well plates (Costar #3631). The device was configured to maintain 26° C., measure an excitation of 390 nm, emission of 490 nm and cutoff 475 nm with the PMT+set at Medium, 6 flashes/read at 5-minute intervals with shaking 5 seconds before the first read and 3 seconds between reads.
Experiments were conducted at 26° C. in a Tris-HCl buffer (50 mM, pH7.4) containing NaCl (150 mM). Amylin 8-37 peptide was solubilized in DMSO to a concentration of 1.5 mM for 5 minutes then briefly centrifuged to remove any aggregates. The soluble amylin peptide (15 μM) was immediately mixed ±bis-ANS (15 μM) and the plate sealed to prevent evaporation. Aggregation was measured by an increase in fluorescence over 24 hours. Test compounds (0.227-60 μM in DMSO) were then added and the dose response was measured over a 24 hour period. EGCG was used as a positive control. Raw fluorescence was normalized to background fluorescence without Amylin and expressed as a percentage of that in control samples. All quantitative data was expressed as mean±SEM from at least 3 replicates. All statistical analysis was conducted with Prism 6 (GraphPad). Nonlinear regression was used to calculate the concentration at which fluorescence was reduced by 50 percent (EC50), as shown in Table 2.

T1 sequence (P05067 672-713): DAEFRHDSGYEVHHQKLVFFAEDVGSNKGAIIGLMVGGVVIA

Turning to `N#C/C(=C/c1ccc(/C=C/c2ccc(N(c3ccccc3)c3ccccc3)cc2)cc1OCCCCCCCC(=O)O)C(=O)O` [PC-191], the pEC50 (usually the EC50 on a negative log10 scale, so that one unit is a factor of ten) in assay [1] is 5.79. Turning to `N#C/C(=C/c1ccc(/C=C/c2ccc(N(c3ccccc3)c3ccccc3)cc2)cc1OCCCCCCCCCC(=O)O)C(=O)O` [PC-192], in assay [1], the pEC50 is 5.55. Still for that read-out and setting: then `O=C(O)CN(CCN(CC(=O)O)CC(=O)O)CC(=O)O` [EDTA, Ethylenediaminetetraacetic acid, reference compound], with 4.34.

With `Oc1c(I)cc(Cl)c2cccnc12` [CQ, Clioquinol, reference compound], the pEC50 is 5.39 in assay [2] and 5.57 in assay [1]. Taken in the same sequence, the figures for `N#CC(=Cc1ccc(/C=C/c2ccc(N(c3ccccc3)c3ccccc3)cc2)cc1)C(=O)O` (stereo in doubt) [PC-064, (Z)-2-cyano-3-[4-[(E)-2-[4-(N-phenylanilino)phenyl]vinyl]phenyl]prop-2-enoic Acid] were 7.62 and 6.13. Take `CC(C)(C)c1ccc(N(c2ccc(/C=C/c3ccc4cc(C#N)c(=O)[nH]c4c3)cc2)c2ccc(C(C)(C)C)cc2)cc1` [PC-174, 7-[(E)-2-[4-(4-tert-butyl-N-(4-tert-butylphenyl)anilino)phenyl]vinyl]-2-oxo-1H-quinoline-3-carbonitrile]: the results for the pEC50 in assay [2] and in assay [1] were 5.43 and 4.30, respectively. Taken in the same sequence, the figures for `COc1cc(/C=C/c2ccc(N(c3ccc(C(C)(C)C)cc3)c3ccc(C(C)(C)C)cc3)cc2)c(OC)cc1C=C(C#N)C(=O)O` (stereo in doubt) [PC-063, (Z)-3-[4-[(E)-2-[4-(4-tert-butyl-N-(4-tert-butylphenyl)anilino)phenyl]vinyl]-2,5-dimethoxy-phenyl]-2-cyano-prop-2-enoic Acid] were 5.90 and 4.51. For the compound `N#C/C(=C/c1ccc(/C=C/c2ccc(N(c3ccccc3)c3ccccc3)cc2)cc1OCC(=O)O)C(=O)O` [PC-190, (Z)-3-[2-(carboxymethoxy)-4-[(E)-2-[4-(N-phenylanilino)phenyl]vinyl]phenyl]-2-cyano-prop-2-enoic Acid], the negative logarithm of the EC50 (pEC50) in assay [1] is 6.19. Consider `N#C/C(=C/c1ccc(-c2ccc(N(c3ccccc3)c3ccccc3)cc2)o1)C(=O)O` [PC-081, (Z)-2-cyano-3-[5-[4-(N-phenylanilino)phenyl]-2-furyl]prop-2-enoic Acid], for which the pEC50 in assay [2] is 6.68; in assay [1] it was 6.47. The compound `CN(C)Cc1ccc2c(Cl)cc(Cl)c(O)c2n1` [AC-068(PBT2), 2-(dimethylamino)methyl-5,7-dichloro-8-hydroxyquinoline, reference compound] gave a pEC50 in assay [1] of 5.65. For the compound `COc1cc(/C=C(\C#N)C(=O)O)c(OC)cc1/C=C/c1ccc(-n2c3ccc(C(C)(C)C)cc3c3cc(C(C)(C)C)ccc32)cc1` [PC-066, (E)-2-cyano-3-[4-[(E)-2-[4-(3,6-ditert-butylcarbazol-9-yl)phenyl]vinyl]-2,5-dimethoxy-phenyl]prop-2-enoic Acid], in assay [2], the pEC50 is 5.92.

Turning to “Epigallocatechin-3-gallate [EGCG, reference compound]”, the pEC50 in assay [2] was 6.07.

In turn, `N#CC(C#N)=Cc1cc2c3c(c1)CCCN3CCC2` [DCVJ, 9-(Dicyanovinyl)julolidine, reference compound] had a pEC50 in assay [1] of 6.27.
